Consider seven compounds from ChEMBL document CHEMBL4270602, “Design, synthesis, docking studies and biological screening of 2-thiazolyl substituted -2,3-dihydro-1H-naphtho[1,2-e][1,3]oxazines as potent HIV-1 reverse transcriptase inhibitors” (Eur J Med Chem, 2018).

For data set [1], the system named is Human immunodeficiency virus 1. The data set can be described thus: Antiviral activity against Human immunodeficiency virus 1 NL4-3 infected in human CEM-GFP cells after 7 days by p24 ELISA. The settings on record: Human immunodeficiency virus 1, NL4-3, CEM-GFP, 168 h. In kind it is functional, organism-based.
Data set [2] deals with Human immunodeficiency virus type 1 reverse transcriptase (Human immunodeficiency virus 1) (UniProt Q72547). The data set can be described thus: Potency index, ratio of efavirenz EC50 to compound EC50 for inhibition of recombinant HIV-1 reverse transcriptase RNA-dependent DNA polymerase activity.
Data set [3] is described as follows: Cytotoxicity against human CEM-GFP cells after 48 hrs by MTT assay. In kind it is cell-based.
The target of data set [4] is Human immunodeficiency virus type 1 reverse transcriptase (Human immunodeficiency virus 1, UniProt Q72547). In words: Inhibition of recombinant HIV-1 reverse transcriptase RNA-dependent DNA polymerase activity using poly(rA)/oligo(dT)16 as template/primer preincubated for 5 to 10 mins followed by template/primer addition and measured after 16 hrs by colorimetric assay.

The nature of data set [5]: Therapeutic index, ratio of CC50 for human CEM-GFP cells to IC50 for HIV-1 NL4-3 infected in human CEM-GFP cells. The settings on record: read-out: Ratio CC50/IC50. The class given is toxicity, cell-based.
Data set [6] deals with Human immunodeficiency virus type 1 reverse transcriptase (Human immunodeficiency virus 1) (UniProt Q72547). In words: Potency index, ratio of inophyllym B EC50 to compound EC50 for inhibition of recombinant HIV-1 reverse transcriptase RNA-dependent DNA polymerase activity.

Structures are written as SMILES.

`COc1ccc2c3c(ccc2c1)OCN(c1nc(-c2ccc(C(F)(F)F)cc2)cs1)C3` yielded an IC50 in data set [1] of 82.7 nM. The Ratio EC50 in data set [2] was 2.5. In data set [3], this compound registered a CC50 at 48 h of 26.3 µM. Moreover, the EC50 in data set [4] amounted to 66 nM. In addition, in data set [5], the selectivity ratio came out at 318.
Turning to `Fc1ccc(-c2csc(N3COc4ccc5ccccc5c4C3)n2)cc1`, the midpoint of inhibition in data set [1], the IC50, lay at 239 nM. Also, in data set [3], it took 25.3 µM to reach half-maximal cytotoxicity (CC50 at 48 h). The EC50 in data set [4] turned out to be 210 nM. Moreover, the selectivity ratio in data set [5] was 106.
As to `FC(F)(F)c1ccc(-c2csc(N3COc4ccc5ccccc5c4C3)n2)cc1`, the IC50 in data set [1] stood at 95.5 nM. The Ratio EC50 in data set [6] is 3. Moreover, half-maximal cytotoxicity in data set [3] (CC50 at 48 h) was put at 24.7 µM. Moreover, the EC50 in data set [4] was found to be 79 nM. Besides, the selectivity ratio in data set [5] was found to be 258.
Compound `Cc1cn([C@H]2C[C@H](N=[N+]=[N-])[C@@H](CO)O2)c(=O)[nH]c1=O` [ZIDOVUDINE] returned an IC50 in data set [1] of 55.7 nM. The compound further yielded a CC50 at 48 h in data set [3] of 13.1 µM. Also, the selectivity ratio in data set [5] was 236.
Regarding `O=C1Nc2ccc(Cl)cc2[C@@](C#CC2CC2)(C(F)(F)F)O1` [EFAVIRENZ], half-maximal inhibition in data set [1] (IC50) required 163 nM. The compound also registered a CC50 at 48 h in data set [3] of 40.5 µM.
With `C[C@H]1[C@H](O)c2c(c3c(c4c(-c5ccccc5)cc(=O)oc24)OC(C)(C)C=C3)O[C@@H]1C`, the EC50 in data set [4] was found to be 225 nM.
For `COc1ccc2c3c(ccc2c1)OCN(c1nc(-c2ccc(F)cc2)cs1)C3`, in data set [1], the IC50 came out at 253 nM. This compound also had a CC50 at 48 h in data set [3] of 24.3 µM. The EC50 in data set [4] was found to be 192 nM. Moreover, in data set [5], the selectivity ratio is 96.2.

The IC50 is the point on the concentration scale where inhibition reaches its midpoint. A lower IC50 goes with higher potency. For orientation: CC50 means the concentration that lowers cell viability or growth by half. Read a high CC50 as better tolerance by the cells. One may read the EC50 as the midpoint of the concentration-response curve.
